Results on four compounds are retold here after patent US6994986B2, “In vitro synthesis of polypeptides by optimizing amino acid metabolism” (The Board of Trustees of the Leland Stanford University, priority 1999, dated 2006).

In assay [1] the target is T1, phosphoenol pyruvate synthetase (pps) (Escherichia coli, UniProt P23538).
T1 construct: endogenous in cells; host or cells: E. coli K12 strain A19, S30 cell extract
As to the kind of experiment: Aspartic acid/asparagine formation in the cell-free reaction mixture. Type of assay: biochemical, E. coli. The note with it: 2.7 mM oxalic acid; FIG. 6. As to the method: (§1) The observations indicated in the previous examples prompted the measurement of individual amino acid concentrations during the course of a protein synthesis reaction. In this case, a pyruvate-driven reaction of 900 μl was started. Samples of 100 μl were taken each hour, diluted 1:1 with cold water and deproteinized by adding 200 μl of cold 10% TCA (trichloroacetic acid) solution. After centrifugation the supernatant was analyzed using a Beckman 1600 amino acid analyzer. […] This is a potentially serious source of reaction inefficiency. In the second case, the depletion of the three amino acids is most likely the reason that prolonging the reaction required amino acids addition.
The conversion of pyruvate to PEP is catalyzed by the enzyme, phosphoenol pyruvate synthetase (pps). Oxalic acid has been reported to inhibit pps. To test to see if the pps reaction is indeed responsible for aspartic acid and asparagine synthesis and to test if these reactions are reducing the protein yield, 2.7 mM oxalic acid was added to both the pyruvate system and the PEP system. […] With the pyruvate system, less pyruvate and ATP are being lost to amino acid formation. In the case with PEP as the energy source, pyruvate is the direct product after PEP transfers its phosphate to ADP. That pyruvate will then be converted back into PEP by pps, but at the cost of two ATP's for each new PEP molecule. […]

Assay [2] relates to E. coli S30 extract. As to the kind of experiment: Cell-free protein synthesis, PEP system (phosphoenol pyruvate / pyruvate kinase ATP regeneration). It counts as biochemical, Escherichia coli. As to the method:
(§2) Throughout the examples to follow, two standard methods were used for cell-free protein synthesis. The first uses phosphoenol pyruvate (PEP) and pyruvate kinase to regenerate ATP from ADP. This is termed the PEP system. The second uses pyruvate and pyruvate oxidase to regenerate ATP. This is called the pyruvate system.
57 mM Hepes-KOH (pH 8.2), 1.2 mM ATP, 0.85 mM each of GTP, UTP and CTP, 1 mM DTT, 0.64 mM cAMP, 200 mM potassium glutamate, 80 mM NH4(OAc), 15 mM Mg(OAc)2, […] folinic acid, 6.7 μg/ml plasmid, 33 μg/ml T7 RNA polymerase, 500 μM each of 20 unlabeled amino acids, [^3H] leucine (0.27 GBq/mmol), 2% PEG 8000, 20 mM PEP (phosphoenol pyruvate), and 0.24 volumes of S30 extract. […]
(§3) Reactions were conducted for given time periods in a water bath set at 37° C. The amount of synthesized protein was estimated from the measured cold TCA-insoluble radioactivities as described (Kim et al., supra.) Radioactivities of samples were measured in a liquid scintillation counter (Beckman). […]
(§4) The amount of synthesized protein was estimated from the measured TCA-insoluble radioactivities as described earlier (Kim et al., 1996a, supra.) Radioactivities of samples were measured in a liquid scintillation counter (Beckman LS3801). […]

Assay [3] has as its system E. coli S30 extract. The assay is described as follows: Cell-free protein synthesis, pyruvate system (pyruvate / pyruvate oxidase ATP regeneration). Type of assay: biochemical, Escherichia coli. As to the method: as §2
T7 RNA polymerase was prepared from the culture of E. coli strain BL21 (pAR1219) according to the slightly modified procedures of Davanloo et al. (1984) Proc. Natl. Acad. Sci. U.S.A. 81: 2035–2039. S30 extract was prepared from wild type E. coli K12 (strain A19) according to the procedures reported earlier (Kim et al., supra.). The standard reaction mixture for the pyruvate system is nearly identical. […]
as §3, §4

A further assay addresses T2, arginine decarboxylase (Escherichia coli, UniProt P21170).
T2 construct: endogenous in cells; host or cells: E. coli K12 strain A19, S30 cell extract
As to the kind of experiment: Arginine depletion in the cell-free reaction mixture (amino acid analysis). Type of assay: biochemical, E. coli. Further details: dose or concentration left out as unconfirmed. The following applies: spermidine; FIG. 5. As to the method: as §1
The data shown in FIGS. 3 and 4 indicate that the degradation of three amino acids, arginine, cysteine and tryptophan is seriously limiting the efficiency and duration of the protein synthesis reaction. […] In the case of arginine, one possible cause is the action of arginine decarboxylase. This is the first enzyme in the pathway for the conversion of arginine to putrescine and spermidine, cationic molecules important for normal bacterial physiology. Putrescine and spermidine can also be produced from ornithine, but arginine is preferred when it is available. (See FIG. 10) Arginine decarboxylase is known to be feedback inhibited by spermidine. […]

In a further assay the target is acetate kinase (Escherichia coli, UniProt P0A6A3). The following applies: read-out: Km value of acetate kinase for acetyl phosphate; cited from earlier work.
Sequence of acetate kinase (P0A6A3 whole entry): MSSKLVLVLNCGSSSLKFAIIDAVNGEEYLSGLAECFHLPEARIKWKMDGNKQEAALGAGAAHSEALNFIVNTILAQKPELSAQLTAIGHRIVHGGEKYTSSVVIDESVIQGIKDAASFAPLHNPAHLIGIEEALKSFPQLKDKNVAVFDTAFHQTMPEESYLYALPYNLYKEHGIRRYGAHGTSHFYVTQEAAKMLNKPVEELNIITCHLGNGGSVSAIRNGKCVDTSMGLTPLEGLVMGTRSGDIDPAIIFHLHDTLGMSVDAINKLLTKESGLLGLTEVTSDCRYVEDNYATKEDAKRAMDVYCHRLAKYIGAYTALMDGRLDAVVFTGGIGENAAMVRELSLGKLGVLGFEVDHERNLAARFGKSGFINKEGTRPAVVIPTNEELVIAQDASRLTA

T1 sequence (P23538 whole entry): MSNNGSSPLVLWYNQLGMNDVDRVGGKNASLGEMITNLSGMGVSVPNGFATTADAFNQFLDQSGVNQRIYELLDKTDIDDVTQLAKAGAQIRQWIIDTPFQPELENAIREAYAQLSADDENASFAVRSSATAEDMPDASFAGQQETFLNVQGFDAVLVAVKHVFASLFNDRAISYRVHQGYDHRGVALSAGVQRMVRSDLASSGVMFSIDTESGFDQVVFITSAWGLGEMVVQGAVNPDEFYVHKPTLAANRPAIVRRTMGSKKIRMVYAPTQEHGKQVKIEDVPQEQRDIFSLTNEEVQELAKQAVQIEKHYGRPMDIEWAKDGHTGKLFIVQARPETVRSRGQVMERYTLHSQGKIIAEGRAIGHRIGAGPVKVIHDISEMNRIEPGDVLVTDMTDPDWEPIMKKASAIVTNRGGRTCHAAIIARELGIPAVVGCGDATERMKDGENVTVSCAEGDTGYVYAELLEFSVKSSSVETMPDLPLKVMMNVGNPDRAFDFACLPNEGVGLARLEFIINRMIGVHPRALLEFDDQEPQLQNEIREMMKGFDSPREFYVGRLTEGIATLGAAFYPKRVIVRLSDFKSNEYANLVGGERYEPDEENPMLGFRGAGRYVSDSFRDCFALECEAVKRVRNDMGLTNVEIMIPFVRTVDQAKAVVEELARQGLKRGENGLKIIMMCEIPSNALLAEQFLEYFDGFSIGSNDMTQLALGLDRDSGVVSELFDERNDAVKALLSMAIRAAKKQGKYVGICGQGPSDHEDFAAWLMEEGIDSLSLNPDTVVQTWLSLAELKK
T2 sequence (P21170 whole entry): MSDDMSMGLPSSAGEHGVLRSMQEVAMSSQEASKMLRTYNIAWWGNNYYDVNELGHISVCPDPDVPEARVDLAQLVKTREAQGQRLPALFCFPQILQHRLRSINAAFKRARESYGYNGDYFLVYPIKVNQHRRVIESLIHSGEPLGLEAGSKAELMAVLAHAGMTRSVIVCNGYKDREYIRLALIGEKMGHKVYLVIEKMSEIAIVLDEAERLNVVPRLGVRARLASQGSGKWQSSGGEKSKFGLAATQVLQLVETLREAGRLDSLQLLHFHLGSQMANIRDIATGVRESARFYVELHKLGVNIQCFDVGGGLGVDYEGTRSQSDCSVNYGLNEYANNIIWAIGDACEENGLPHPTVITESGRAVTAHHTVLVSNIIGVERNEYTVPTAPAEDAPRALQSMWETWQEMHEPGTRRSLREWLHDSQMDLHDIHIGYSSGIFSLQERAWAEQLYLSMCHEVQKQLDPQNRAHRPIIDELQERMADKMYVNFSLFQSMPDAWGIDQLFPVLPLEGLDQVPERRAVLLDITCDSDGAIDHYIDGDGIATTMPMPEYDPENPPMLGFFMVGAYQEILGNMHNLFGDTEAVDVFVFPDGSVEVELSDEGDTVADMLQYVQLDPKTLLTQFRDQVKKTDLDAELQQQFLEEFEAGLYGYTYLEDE

`O=C(O)C(=O)O` [oxalic acid]: in assay [1], the “formation of aspartic acid and asparagine” value is “reduced”. Besides, the protein yield result is recorded as “increases the protein yield” in the assay on E. coli S30 extract [2] (2.7 mM oxalic acid, PEP system, FIG. 8) and “increases the protein yield” in the assay with E. coli S30 extract [3] (2.7 mM oxalic acid, pyruvate system, FIG. 7). Consider `NCCCCNCCCN` [spermidine], for which the arginine depletion entry at arginine decarboxylase is listed as “significantly slow arginine depletion”. For the compound `CC(=O)OP(=O)(O)O` [acetyl phosphate], the Km (as a rule, the substrate concentration at which the rate is half of its maximum) at acetate kinase was 200 µM. In addition, the “support of protein synthesis as energy source” value with E. coli S30 extract [2] (energy source in place of PEP) is “as efficiently as PEP”. On to catalase, for which, in the assay on E. coli S30 extract [3] (exogenous catalase added to the reaction mixture), the “effect on rate or duration of protein synthesis” value is listed as “did not affect either the rate or duration of protein synthesis”.
